Reference: patent US9655991B2, “Stable hydrogel compositions including additives” (Allergan Industries, S.A.S., priority 2010, dated 2017)

Assay: Oxidative degradation of gel by free radicals (H2O2) on rheometer
Settings: gel with AA2G and lidocaine vs gel with lidocaine
From the text: The effect of ascorbic acid 2-glucoside (AA2G™) on HA-based gel matrix oxidative degradation was studied. Oxidation testing was used as it allows testing of the resistance of a HA-based gel matrix to free radicals. Degradation by free radicals was simulated on a rheometer (Haake Rheostress 600) by addition of 1/7 ratio of H2O2 30% on the surface of a spread gel measured with a controlled stress rheometer according to the following method: frequency of 1 Hz with 0.8% controlled strain, during 3600 s at 35° C. The time value is taken at 5 Pa/s.

Protection against oxidative degradation (factor): 3
SMILES: O=C1O[C@H]([C@@H](O)CO)C(O)=C1O[C@H]1O[C@H](CO)[C@@H](O)[C@H](O)[C@H]1O [Ascorbic acid 2-glucoside (AA2G™), Ascorbic acid 2-glucoside]
